Patent publication US20070264354A1, “TREATMENT OF A WOUND WITH A VASODILATOR” (priority 2006, published 2007)
Where no end group is shown, it is not given here.

Columns and labels:
[1] = tested on: capsaicin-sensitive cutaneous nerves (small sensory fibers); experiment: Acute topical capsaicin-induced cutaneous blood flow by laser Doppler flowmetry; type: in vivo, human
[2] = tested on: capsaicin-sensitive cutaneous nerves (small sensory fibers); experiment: Heat-step heat pain threshold after acute topical capsaicin (primary hyperalgesia); type: in vivo, human
Procedure: In the heat-step procedure, basal blood flow was monitored at resting skin temperature and later at 32° C. The temperature was raised in increments of 2° C. per minute until a maximum temperature value of 48° C. was reached. Sensory responses (specifically, heat pain threshold, HPT) and peak net flows at each increment were documented. A second heat-step test followed an acute application of topical capsaicin to the skin to measure sensitization by HPT, i.e., primary hyperalgesia. Two normal and obese subjects complained that the pungency from the capsaicin was extreme and, as a consequence, the heat-step test for hyperalgesia was not conducted.

[3] = tested on: capsaicin-sensitive cutaneous nerves (small sensory fibers); experiment: Capsaicin-induced pungency (quality of sensation); type: in vivo, human
Procedure: Topical Capsaicin: Capsaicin, 8-methyl-N-vanillyl-6-nonenamide, is a vanilloid neurotoxin that targets somatic small primary afferent neurons. Capsaicin (1% in 75% ethanol, 25% saline) was applied topically for 45 minutes through a central chamber (300 μl capacity, 1 cm diameter) in a clear circular plastic perspex adhered to the skin. Throughout the application, perceptual responses and peak flow values were obtained. The vehicle was applied at different skin sites to 6 normal subjects.

[4] = tested on: capsaicin-sensitive cutaneous nerves (small sensory fibers); experiment: Capsaicin-induced desensitization (Cap-D); type: in vivo, human
Procedure: Capsaicin-Induced Desensitization: Eight (8) normal subjects were recruited to ascertain the degree of capsaicin sensitivity of each of the tests described above. Each subject applied topical capsaicin to one forearm and thigh, and the vehicle to the opposing limb in 45 minute applications, 3-4 times daily for 5 days.

[5] = tested on: venous stasis ulcers; settings: CGRP and VIP given together by iontophoresis (Gherardini et al, 1998b); cited from earlier work
[6] = tested on: diabetic wounds; settings: cited from earlier work
[7] = tested on: NOS; settings: animals (Isenberg et al, 2005); cited from earlier work
[8] = tested on: wound areas; settings: 50 ul of 110 ug/ml solution topically (Li et al, 1980); cited from earlier work
[9] = tested on: leukocyte chemotaxis; settings: subdermal air sacs, mice (Lawman et al, 1985); cited from earlier work

Molecule: COc1cc(CNC(=O)CCCCC=CC(C)C)ccc1O [Capsaicin, 8-methyl-N-vanillyl-6-nonenamide]
- Capsaicin Latency, Indirect, Normal, Mean ([1]; latency to flare, indirect site, normal subjects): 12 min
- Capsaicin Latency, Indirect, Obese, Mean ([1]; latency to flare, indirect site, obese subjects): 26 min
- Capsaicin Latency, Direct, Normal, Mean ([1]; latency to vasodilatory response, direct site, normal subjects): 11 min
- Capsaicin Latency, Direct, Obese, Mean ([1]; latency to vasodilatory response, direct site, obese subjects): 21 min
- Capsaicin Flux, Direct, Normal, Mean ([1]; net peak flux, direct flow site, 1% topical capsaicin 45 min, forearm, normal subjects): 299 AU
- Capsaicin Flux, Direct, Obese, Mean ([1]; net peak flux, direct flow site, 1% topical capsaicin 45 min, forearm, obese subjects): 159 AU
- Capsaicin Flux, Indirect, Normal, Mean ([1]; net peak flux, indirect flow (flare) site, 1% topical capsaicin 45 min, normal subjects): 257 AU
- Capsaicin Flux, Indirect, Obese, Mean ([1]; net peak flux, indirect flow (flare) site, 1% topical capsaicin 45 min, obese subjects): 128 AU
- Heat Step HPT Post-Cap - Hyperalgesia, Normal, Mean ([2]; after acute topical capsaicin, normal subjects): 37.1 °C
- Heat Step HPT Post-Cap - Hyperalgesia, Obese, Mean ([2]; after acute topical capsaicin, obese subjects): 39.8 °C
- fall in the HPT, average ([2]; both normal and obese groups, p<0.001): ~7 C
- share of population with pronounced hyperalgesic response ([2]; normal population, n=11/13): ~90%
- share of population with pronounced hyperalgesic response ([2]; obese population, n=43/53): Approximately 80%
- capsaicin-induced pungency level ([3]; normal subjects): 90%
- share perceiving burn/pain ([3]; normal subjects): approximately 80%
- share reporting a stinging/prickly sensation ([3]; normal subjects): 20%
- capsaicin-induced pungency level ([3]; obese subjects): 45%
- heat-induced flux in heat-ramp test after Cap-D ([4]; direct and indirect flow, versus vehicle): decreased significantly
- dose (mC)-response (flux) curve to transcutaneous electrical stimulation after Cap-D ([4]; indirect site): abolished neurogenic flare
- blood flow on acute capsaicin challenge after Cap-D ([4]; normal subjects n=8): virtually no increased blood flow
- pungency on acute capsaicin challenge after Cap-D ([4]; normal subjects n=8): no pungency
- HPT after capsaicin-induced desensitization ([4]; topical capsaicin 3-4 times daily for 5 days, normal subjects n=8, maximum temperature utilized): > 48 °C

Molecule: VIP: Vasoactive Intestinal Polypeptide, peptide released by C-fibers (HSDAVFTDNYTRLRKQMAVKKYLNSILN; ends and bridges not checked; UniProt P01282 125-152, looked up)
- healing of venous stasis ulcers [5]: improved healing of venous stasis ulcers

Molecule: N=C(N)NCCC[C@H](N)C(=O)O [LA, L-Arginine]
- wound healing ([6]; diabetic rats (Shi et al)): improve wound healing
- wound NOx levels ([6]; diabetic wounds (Shi et al)): increased NOx levels to normal values

Molecule: COC(=O)[C@@H](N)CCCNC(=N)N[N+](=O)[O-] [L-NAME]
- vessel diameter and blood flow in skin flaps [7]: marked decreases in vessel diameter and blood flow

Molecule: NGF: Nerve growth factor, instrumental in the synthesis of sensory neuropeptides in the DRG
- wound healing [8]: markedly accelerated healing
- leukocyte chemotaxis [9]: significantly increased leukocyte chemotaxis
